Data taken from patent US11553718B2, “Mic reduction with lithium ions” (priority 2014, dated 2023).

How the values were obtained:
[1] = system: rGDA/IT (rGDA-IT) strain; assay: MIC determination in CaCO3 slurry with or without lithium ions; type: cell-based, Pseudomonas mendocina; conditions: Li^+ 197 mM (1380 ppm), Li2CO3
Procedure: (§1) When not otherwise indicated, the quoted bacterial counts (values are in cfu/plate) in the Tables here below are determined after 2 days following plate-out and incubation at 30° C. The counting method was as follows. The aqueous preparations were stirred well with a cotton swap (e.g. Applimed SA, No. 1102245); the excess aqueous preparation was removed by dipping it gently to the side of the aqueous preparation container, leaving approximately 200 mg of aqueous preparation on the swap. […] TSA plates were then incubated for 48 h at 30° C. Colony forming units (cfu) were then counted and reported as cfu/plate. Counts from 100 to 999 cfu per plate are reported as ≥100 cfu/plate. Counts of 1000 cfu and above per plate are reported as ≥1000 cfu/plate. Yeast and moulds were counted as described for bacteria with the following exceptions, a) Sabouraud Dextrose Agar (SDA) containing Chloramphenicol (e.g. heipha Dr. Miller GmbH, No. 1460030020) were used instead of TSA, b) SDA plates were incubated at 25° for 5 days and c) cfu were counted and reported after 48 h and 5 days of incubation. Yeast and moulds counts from 20 to 99 cfu per plate are reported as […]. Yeast and moulds counts of 100 cfu and above per plate are reported as >100 cfu/plate.
(§2) For determining the MIC, the tested microorganism, i.e. the strain of bacteria and/or strain of yeast and/or strain of mould, were freshly grown until the end of the logarithmic growth phase according to the requirements of the individual species to a density of approximately 10^7-10^9 cells/ml.
(§3) For example, fresh bacteria cultures of the bacteria E. coli, e.g. E. coli ATCC 11229, and S. aureus, e.g. S. aureus strains DSMZ 346, were prepared by inoculation of 3 ml liquid growth media (tryptic soy broth, e.g. Fluka Cat. No. 22092) from a stock culture and incubation for 16 to 20 h at 30° C. with agitation at 150 rotations per minutes (rpm) leading to a cell density of approximately 2×10^8 cells/ml. Fresh cultures of resistant bacteria, adapted to the conditions in biocide containing CaCO3 slurries, were prepared by inoculation of 50 g 75 wt.-% solid content CaCO3 slurry from a stock culture and incubated for 14 to 28 days at 30° C. without agitation.
(§4) Lithium ions were added to the aqueous preparation (e.g. CaCO3 slurry) by the addition of a water soluble lithium salt. For example to 50 g CaCO3 slurry with a solid content of 75% (w/w) 1.177 ml of a 74 g/Li2CO3 suspension was added and mixed well leading to a lithium ion concentration of 172 mM or 1205 ppm in the water phase. As another example to 50 g CaCO3 slurry with a solid content of 75 wt.-% (w/w) 0.04 ml of a 292 g/L Li3Citrate (2M) solution was added and mixed well leading to a lithium ion concentration of 19 mM or 135 ppm in the water phase.
(§5) The biocide to be tested was added to the aqueous preparation (e.g. CaCO3 slurry with or without lithium ions) in increasing concentrations starting from 0 ppm (without biocide). The concentrations ranged from concentrations higher than recommended by the supplier, to very low amounts (as low as 1 ppm or lower). Of each biocide concentration a 3 ml sample of aqueous preparation was combined with 20 μl fresh bacterial culture.
(§6) All samples were incubated at 30° C. for 24 h. After incubation colony forming units (cfu) per plate (cfu/plate) were determined as described above under bacterial count.
(§7) The MIC for bacteria is defined as the lowest concentration of biocide in the presence or absence of lithium ion amongst all samples tested, where the bacterial concentration dropped below 100 cfu/plate. The MIC for yeast and mould is defined as the lowest concentration of biocide in the presence or absence of lithium ion amongst all samples tested, where the microbial concentration dropped below 20 cfu/plate.

[2] = system: bacterial strain rOmyAK; assay: microbe, parasite or virus in culture; type: cell-based, Pseudomonas mendocina; conditions: for bacterial count: rOmy AK; for MIC ratio (MICwithout Li/MICLi) / MIC active/aequeous: rOmyAK
Procedure: as §1, §2, §3, §4, §5, §6, §7

[3] = system: E. coli strain ATCC11229; assay: MIC determination / bacterial count in CaCO3 slurry with or without lithium ions; type: cell-based; conditions: E. coli; Li^+ 197 mM (1380 ppm), Li2CO3
Procedure: as §1, §2, §3, §4, §5, §6, §7

[4] = system: S. aureus strain DSMZ 346; assay: as above; type: cell-based; conditions: S. aureus; Li^+ 329 mM (2305 ppm), Li2CO3
Procedure: as §1, §2, §3, §4, §5, §6, §7

`Cn1sccc1=O` [MIT, 2-Methyl-2H-isothiazolin-3-one] was tested, and the “MIC ratio (MICwithout Li/MICLi)” value [1] was 1.67, the bacterial count ([2]; 18 ppm MIT, 329 mM Li^+) was no less than 100 cfu/plate and the bacterial count ([2]; 18 ppm MIT, no Li^+) was no less than 1000 cfu/plate. It also gave a bacterial count ([2]; 35 ppm MIT, 329 mM Li^+) of 68 cfu/plate, a bacterial count ([2]; 35 ppm MIT, no Li^+) of no less than 100 cfu/plate and a bacterial count ([2]; 106 ppm MIT, 329 mM Li^+) of 0 cfu/plate. The bacterial count ([2]; 106 ppm MIT, no Li^+) was 0 cfu/plate, the “MIC ratio (MICwithout Li/MICLi)” value ([2]; Li^+ 197 mM (1380 ppm), Li2CO3) was 1 and the MIC active/aequeous ([2]; Li^+ 329 mM (2305 ppm), Li2CO3) was 35 ppm. The “MIC ratio (MICwithout Li/MICLi)” value ([2]; Li^+ 329 mM (2305 ppm), Li2CO3) was 3, the “MIC ratio (MICwithout Li/MICLi)” value ([2]; Li^+ 423 mM (2964 ppm), Li2CO3) was 6 and the MIC active/aequeous ([2]; no Li^+) was 106 ppm. The “MIC ratio (MICwithout Li/MICLi)” value [3] was greater than 2.5 and the “MIC ratio (MICwithout Li/MICLi)” value [4] was greater than 5.
